In paper PMC4890880 (ACS infectious diseases, 2016):
Read-outs that look alike come from different tables or passages of the source.

Experiments:
HepG2-A16-CD81EGFP cells = test: cells; conditions: Homo sapiens; for IC50: HepG2, read-out: Tox IC50; for inhibition at 50 µM: HepG2, read-out: Tox max inhibition (%) @ 50 uM
[1] = system: Plasmodium berghei (Pb-Luc) exoerythrocytic-stage parasites; test: microbe, parasite or virus in culture
[2] = HepG2, read-out: HepG2 Tox% @ 50 uM rep1
[3] = HepG2, read-out: HepG2 Tox% @ 50 uM rep2
[4] = read-out: Inhibition% @ 50 uM rep1
[5] = read-out: Inhibition% @ 50 uM rep2
[6] = read-out: PbLuc IC50, dose response, 1/3 dilutions, max conc. 10 or 50 uM, unit inferred
[7] = read-out: PbLuc max inhibition (%) @ 50 uM

| Compound | cytotoxicity at 50 µM (HepG2-A16-CD81EGFP cells; [2]) [%] | cytotoxicity at 50 µM (HepG2-A16-CD81EGFP cells; [3]) [%] | inhibition at 50 µM [1, 4] [%] | inhibition at 50 µM [1, 5] [%] | IC50 (HepG2-A16-CD81EGFP cells) [µM] | inhibition at 50 µM (HepG2-A16-CD81EGFP cells) [%] | IC50 [1, 6] [µM] | inhibition at 50 µM [1, 7] [%] | IC50 ([1]; read-out: PbLuc IC50) [µM] |
| --- | --- | --- | --- | --- | --- | --- | --- | --- | --- |
| CCN(CC)CCNc1ncnc2c1[nH]c1ccc(Cl)cc12 [MMV396703] | 95 | 98 | 103 | 106 |  |  |  |  |  |
| COc1ccc(Nc2nc(NN=Cc3ccc(O)cc3)nc(Nc3ccc([N+](=O)[O-])cc3)n2)cc1 [MMV666689] | 97 |  | 98 | 98 | 46.8 | 73 | 15.9 | 95 |  |
| O=C(Nc1ccc(F)c(Cl)c1)Nc1ccc(Cl)c(Cl)c1 [MMV665953] | 97 | 98 | 103 | 102 | 5.02 | 99 | 0.85 | 101 |  |
| Cc1ccc(S(=O)(=O)c2c(COC(=O)c3cccc(C)c3)c(-c3ccccc3)nn2C)cc1 [MMV665936] | 27 |  | 102 | 103 |  |  |  |  |  |
| COc1cccc(Cn2c(Oc3ccccc3)nc3c2c(=O)n(C)c(=O)n3C)c1 [MMV396705] | 47 |  | 99 | 99 |  |  |  |  |  |
| Cc1ccc(Nc2nc(N)c3ccccc3n2)cc1Cl [MMV011522] | 97 |  | 100 | 99 |  |  |  |  |  |
| Cc1ccc(F)cc1NC(=O)c1cc(Cl)ccc1Nc1ccccc1 [MMV007275] | -8 |  | 75 | 69 |  |  |  |  |  |
| CCN(CC)CCNc1ccnc2cc3ccccc3cc12 [MMV006303] | 99 |  | 102 | 103 | 42.6 | 92 | 20.8 | 98 |  |
| CCN(CC)CCn1c(=N)n(CC(O)c2ccc(Cl)c(Cl)c2)c2ccccc21 (stereo not drawn) [MMV000248] | 101 | 102 | 103 | 105 | 27.1 | 98 | 8.5 | 99 |  |
| Cc1ccc(-c2cc3c(nn2)-c2ccccc2C3=O)cc1 [MMV666021] | 31 | 9 | 99 | 89 |  |  |  |  |  |
| O=C(NC1CCN(Cc2ccccc2)CC1)c1cc(C(=O)NC2CCN(Cc3ccccc3)CC2)cc(C(=O)NC2CCN(Cc3ccccc3)CC2)c1 [MMV019881] | 101 |  | 104 | 104 | > 50 | 60 | 14.7 | 94 |  |
| CC(C)=CCN1CCC(C(=O)Nc2ccc(-c3nc4ccccc4[nH]3)cc2)CC1 [MMV665946] | 98 | 99 | 100 | 101 |  |  |  |  |  |
| CC(C)(C)CC(C)(C)NCC(O)COc1ccc2c(c1)CCC2 (stereo not drawn) [MMV665817] | 96 | 98 | 103 | 104 |  |  |  |  |  |
| CCN(CC)CCNc1ncnc2c1[nH]c1ccc(Br)cc12 [MMV006545] | 99 | 101 | 104 | 106 |  |  |  |  |  |
| CC1=C(CC(=O)c2cccc([N+](=O)[O-])c2)C(=O)c2ccccc2C1=O [MMV666125] | 100 |  | 103 | 104 | 21.1 | 99 | 4.26 | 99 |  |
| CCN(CC)CCNc1ccnc2cc(Cl)ccc12 [MMV006087] | 53 | 87 | 101 | 103 |  |  |  |  |  |
| O=C1c2ccccc2-c2nnc(-c3ccc(Br)cc3)cc21 [MMV665934] | -9 |  | 1.49 | 29 |  |  |  |  |  |
| CCOc1c(Cl)cc(CNCC(O)c2ccccc2)cc1OC (stereo not drawn) [MMV396632] | 82 | 76 | 99 | 96 |  |  |  |  |  |
| Cc1ccc(C2CC(C(F)(F)F)n3nc(C(=O)N4CCN(C(c5ccccc5)c5ccccc5)CC4)cc3N2)cc1 (stereo not drawn) [MMV000699] | 49 |  | 102 | 101 |  |  |  |  |  |
| Cc1ccc(C)c(Cn2c(N3CCC(C(=O)NCc4cccs4)CC3)nc3ccccc32)c1 [MMV019741] | 98 |  | 103 | 104 |  |  |  |  |  |
| Cc1ccc(CSCc2ccc(C(=O)NC3CC3)o2)cc1 [MMV007571] | 66 | 74 | 103 | 103 |  |  |  |  |  |

| Compound | cytotoxicity at 50 µM (HepG2-A16-CD81EGFP cells; [2]) [%] | cytotoxicity at 50 µM (HepG2-A16-CD81EGFP cells; [3]) [%] | inhibition at 50 µM [1, 4] [%] | inhibition at 50 µM [1, 5] [%] | IC50 (HepG2-A16-CD81EGFP cells) [µM] | inhibition at 50 µM (HepG2-A16-CD81EGFP cells) [%] | IC50 [1, 6] [µM] | inhibition at 50 µM [1, 7] [%] | IC50 ([1]; read-out: PbLuc IC50) [µM] |
| --- | --- | --- | --- | --- | --- | --- | --- | --- | --- |
| Cc1cc(Nc2ccc(C)c(Cl)c2)n2nc(C(F)(F)F)nc2n1 [MMV665874] | 93 | 95 | 102 | 102 |  |  |  |  |  |
| Cc1ccc(C)c(-c2csc(Nc3ccc(C)c(C)c3)n2)c1 [MMV007654] | -26 |  | -107 | -33 |  |  |  |  |  |
| Cc1ccc(NC(=O)Nc2cccc(Cl)c2)cc1F [MMV000911] | 85 | 89 | 104 | 105 |  |  |  |  |  |
| c1ccc2c(NCCCCCCNc3c4c(nc5ccccc35)CCCC4)c3c(nc2c1)CCCC3 [MMV019555] | 100 |  | 104 | 104 | 14.5 | 101 |  | 100 | 1.39 |
| Cc1cc(C=C2SC(=Nc3ccccc3)N(C3CCCC3)C2=O)c(C)n1-c1ccc(Cl)cc1 [MMV666688] | -4.47 | -11 | 14 | 0.839 |  |  |  |  |  |
| Cc1cc(=O)oc2c1ccc1oc(C(=O)c3ccccc3)c(C)c12 [MMV006753] | 37 |  | 102 | 103 |  |  |  |  |  |
| c1ccc(-c2ccc(-c3nc4ccccc4[nH]3)cc2)cc1 [MMV665891] | 39 | 30 | 103 | 105 |  |  |  |  |  |
| CCOc1cc(CNC(C)C(O)c2ccccc2)cc(Cl)c1OCC (stereo not drawn) [MMV396633] | 98 | 99 | 101 | 102 |  |  |  |  |  |
| COc1ccc(CCn2c(=N)c(C(=O)NCc3cccnc3)cc3c(=O)n4cccc(C)c4nc32)cc1 [MMV667488] | -0.0644 |  | 81 | 83 |  |  |  |  |  |
| COc1cccc(C(=O)NC(c2ccc(C)cc2)c2cc(Cl)c3cccnc3c2O)c1 (stereo not drawn) [MMV665969] | 92 |  | 104 | 104 | 4.83 | 89 | 1.65 | 101 |  |
| Cc1cc(C)c2c(c1)OCN(Cc1ccccc1Cl)C2 [MMV006558] | 100 | 100 | 104 | 105 |  |  |  |  |  |
| CCOC(=O)c1c(C)n(-c2ccccc2)c2ccc(OC(=O)c3cc(OC)c(OC)c(OC)c3)cc12 [MMV396664] | 61 |  | 100 | 101 |  |  |  |  |  |
| COC(=O)c1ccc(C2C3=C(O)CC(c4ccc(F)cc4)CC3=Nc3ccccc3N2C(=O)c2ccccc2)cc1 (stereo not drawn) [MMV011438] | -12 |  | 98 | 96 | > 50 | 8 | 3.16 | 97 |  |
| O=C(Nc1ccc(Cl)c(Cl)c1)Nc1ccc(Cl)c(Cl)c1 [MMV665852] | 100 |  | 103 | 104 | 4.86 | 101 | 0.669 | 100 |  |
| Cc1cccc(-n2ncc3c(=O)[nH]c(-n4nc(C)cc4NC(=O)c4cc5ccccc5o4)nc32)c1 [MMV403679] | 38 | 47 | 100 | 100 |  |  |  |  |  |
| COc1cc(-c2nc(-c3ccc(Sc4ccccc4)cc3)c(-c3ccccc3)[nH]2)cc(OC)c1O [MMV007273] | 89 |  | 101 | 102 | 34.1 | 82 | 7.67 | 100 |  |
| CC(=O)c1ccc(NC(=O)CSc2nc(-c3ccccc3Cl)ns2)cc1 [MMV666124] | 96 |  | 104 | 104 |  |  |  |  |  |
| CC(Oc1ccc(NC(=O)c2cccs2)cc1)C(=O)c1ccc(Cl)cc1 (stereo not drawn) [MMV665886] | 82 |  | 102 | 102 |  |  |  |  |  |
| COc1ccc(NC(=O)C2c3ccccc3C(=O)N(CC(C)C)C2c2cccs2)cc1 (stereo not drawn) [MMV000662] | 37 | 50 | 102 | 106 | > 50 | 37 | 17.5 | 98 |  |
| CC(C)c1ccc(CNCC(O)c2ccccc2)cc1 (stereo not drawn) [MMV001049] | 96 | 97 | 100 | 102 |  |  |  |  |  |
| CC(C)OCc1cc(CN2CCN(c3cccc(Cl)c3)CC2)c(O)c2ncccc12 [MMV000788] | 99 | 100 | 103 | 106 | 3.01 | 94 | 0.99 | 101 |  |
